Tests used:
[1] = test system: ovalbumin (OVA)-induced AAD
[2] = target: HDAC-7 (Homo sapiens, UniProt Q8WUI4); assay: Binding to metal dependent histone deacetylase enzymes (epigenetic assay services)
[3] = target: HDAC8 (Homo sapiens, UniProt Q9BY41); assay: biochemical
[4] = test system: peripheral blood mononuclear cells (PBMC)
[5] = 5 mg/kg intraperitoneally following each OVA nebulization, compared to ovalbumin-sensitized mice

Chain of HDAC-7 (Q8WUI4 whole entry): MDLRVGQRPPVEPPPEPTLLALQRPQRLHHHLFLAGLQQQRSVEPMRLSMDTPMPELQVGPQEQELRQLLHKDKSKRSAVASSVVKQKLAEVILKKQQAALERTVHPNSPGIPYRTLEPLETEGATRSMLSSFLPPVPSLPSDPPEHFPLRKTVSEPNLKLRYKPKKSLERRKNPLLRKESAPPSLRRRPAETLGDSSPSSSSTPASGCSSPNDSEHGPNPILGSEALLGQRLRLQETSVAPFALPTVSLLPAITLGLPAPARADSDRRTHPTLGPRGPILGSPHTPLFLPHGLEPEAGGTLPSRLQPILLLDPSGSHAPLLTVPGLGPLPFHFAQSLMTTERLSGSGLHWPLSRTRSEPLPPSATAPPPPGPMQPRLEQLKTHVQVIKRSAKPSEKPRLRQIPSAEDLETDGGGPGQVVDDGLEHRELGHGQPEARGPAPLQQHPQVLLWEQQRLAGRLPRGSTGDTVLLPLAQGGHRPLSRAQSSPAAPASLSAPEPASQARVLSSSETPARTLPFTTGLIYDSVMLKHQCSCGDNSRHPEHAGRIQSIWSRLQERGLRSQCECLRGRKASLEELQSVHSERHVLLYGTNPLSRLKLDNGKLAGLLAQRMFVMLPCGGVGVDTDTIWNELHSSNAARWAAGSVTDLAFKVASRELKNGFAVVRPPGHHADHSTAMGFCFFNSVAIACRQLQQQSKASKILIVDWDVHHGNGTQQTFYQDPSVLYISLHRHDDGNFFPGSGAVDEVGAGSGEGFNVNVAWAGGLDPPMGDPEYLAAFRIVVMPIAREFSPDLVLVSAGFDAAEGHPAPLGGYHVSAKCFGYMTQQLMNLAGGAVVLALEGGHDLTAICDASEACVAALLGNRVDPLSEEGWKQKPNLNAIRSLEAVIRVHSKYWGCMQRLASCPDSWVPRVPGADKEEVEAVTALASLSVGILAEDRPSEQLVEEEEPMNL
Chain of HDAC8 (Q9BY41 whole entry, species assumed): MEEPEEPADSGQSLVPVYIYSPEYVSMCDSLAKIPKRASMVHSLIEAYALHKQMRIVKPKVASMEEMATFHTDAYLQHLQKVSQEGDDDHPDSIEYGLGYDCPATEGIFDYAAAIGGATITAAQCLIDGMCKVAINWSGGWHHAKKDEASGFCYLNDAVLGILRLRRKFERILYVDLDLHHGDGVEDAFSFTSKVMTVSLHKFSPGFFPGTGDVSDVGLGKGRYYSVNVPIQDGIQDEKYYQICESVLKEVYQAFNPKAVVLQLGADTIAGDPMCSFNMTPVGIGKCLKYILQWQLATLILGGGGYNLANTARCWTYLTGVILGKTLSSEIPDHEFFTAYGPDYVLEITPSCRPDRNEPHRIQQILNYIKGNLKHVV

## C[S@@+]([O-])CCCCN=C=S [LSF, (R)-1-Isothiocyanato-4-(methylsulfinyl)butane]
[1]; [5]
  airway wall thickness: reductions
  goblet cell hyperplasia: reductions
  inflammation: reductions
[1]; OVA-LSF 5 mg/kg, strong staining in OVA-VEH
  Annexin V staining (apoptosis) in lung tissue: Weak
[2]; HDAC-7
  HILLSLOPE: −0.41
  IC50: 5.81 mM
[2]; more subtle than Trichostatin A
  binding to HDAC 7 (in words): specific binding
[3]
  IC50: 0.0827 mM
[4]; 1 μM TSA, 10 μM SAHA, 10 mM NaB, 15 or 30 μM LSF
  reduction in chemokines and cytokines relative to Trichostatin A (TSA), SAHA and sodium butyrate (NaB): more pronounced effects
[4]; 15 μM LSF or 30 μM LSF, FIG. 3
  levels of TNF-α, IL-1β, IL-6, IL-8, MIP-1β and IP-10 in supernatants: reduction

Reference: patent publication US9532970B2, “Compositions for anti-inflammatory, antioxidant effects and improved respiratory function by specific histone deacetylase inhibition” (priority 2014, dated 2017)
